{"source": "patent US12071586B2", "about": "“Composition and method for controlling bacteria in formations” (priority 2017, dated 2024)", "key": {"SRB [1]": {"system": "SRB", "assay": "Hydrogen sulfide inhibition in mock-produced water spiked with SRB, H2S by Draeger tubes", "type": "cell-based, sulfate-reducing bacteria (SRB)", "conditions": "20 ppm MoO4 alone, mock produced water (Example 6)", "experimental": "(§1) Hydrogen sulfide inhibition was tested in mock-produced water approximating water used in hydraulic fracturing operations and was made to a total dissolved solids concentration of 3% with a mixture of instant ocean and NaCl salts. The water was supplemented with nutrients and sulfate to allow SRB to metabolize and create H2S. The water was spiked with SRB and then treated with the various treatment conditions noted below in Table 3 and sealed. Treatment conditions were: Control: No biocide or nitrate.\n(§2) H2S was measured at intervals using H2S detecting Draeger tubes. Dissolved H2S was released into the gas phase with the addition of hydrochloric acid so that H2S could be measured with the Draeger tubes to get a complete reading of all H2S produced during the course of the example.\nExample 6 was performed in accordance with Example 4 using mock produced water. Samples of the following were mixed with the mock produced water."}, "SRB [2]": {"system": "SRB", "assay": "Hydrogen sulfide inhibition in actual produced water (Eagle Ford shale, diluted to 3%), H2S by Draeger tubes", "type": "cell-based, sulfate-reducing bacteria (SRB)", "conditions": "20 ppm MoO4 alone, actual produced water (Example 7)", "experimental": "as §1, §2\nSamples were prepared in accordance with Example 4, except that actual produced water sourced from the Eagle Ford shale that was diluted to 3% using deionized water was used in the samples.\nExample 7 was performed in accordance with Example 6 using actual produced water. Samples of the following were mixed with the […]."}}}
{"compound": "[O]=[Mo](=[O])([O-])[O-]", "note": "[MoO4, molybdate]", "values": [{"measurement": "Total H2S", "setting": "SRB [1]", "result": 1974, "unit": "ppm"}, {"measurement": "Total H2S", "setting": "SRB [2]", "result": 3188, "unit": "ppm"}]}
